According to patent publication US20090239828A1, “Adhesive preparation” (priority 2006, published 2009):

Legend:
[1] = Clinical test, once daily oral administration to patients with osteoporosis; settings: human, in vivo
[2] = Oral administration in rat models of osteoporosis; settings: in vivo; from the minimum effective dose in oral administration in rat models; read-out: sum of the AUC value of minodronic acid per month that gives a suppressive effect on osteoporosis
Procedure: The effective blood concentration of the bisphosphonic acid derivative for human can be extrapolated from results of various clinical tests, animal experiments, etc. For example, when minodronic acid hydrate was used, the sum of the AUC value of minodronic acid per month that gives a suppressive effect on osteoporosis was about 5 ng·hr/mL or more, from the minimum effective dose in oral administration in rat models of osteoporosis.

- AUC [1]: ≥ 1 ng·h/mL
- AUC [2]: ≥ 5 ng·h/mL
Structure (SMILES): O=P(O)(O)C(O)(Cc1cnc2ccccn12)P(=O)(O)O [minodronic acid hydrate, 1-hydroxy-2-(imidazo[1,2-a]pyridin-3-yl)ethylidenebisphosphonic acid]
